{"source": "patent US11339171B2", "about": "“MDM2 inhibitors” (Gan & Lee Pharmaceuticals, priority 2017, dated 2022)", "key": {"[1]": {"experiment": "Pharmacokinetics in ICR mice after intravenous and intragastric administration", "assay_type": "in vivo", "details": "for MRT last: read-out: MRT(0-t); for MRT inf: read-out: MRT(0-∞); for Vd: read-out: Vz", "description": "Experimental Example 3 Determination of the Pharmacokinetics of the Mdm2 Inhibitors of the Present Invention in Mice\nICR mice were used as the test animals, and the concentrations of the drugs in plasma of mice at different time points after intravenous administration and intragastric administration of the representative compounds were measured by a LC/MS/MS method, so as to study the pharmacokinetic behavior of the compounds of the present invention in mice and evaluate the pharmacokinetic characteristics thereof.\nSome compounds prepared in Examples 1-180 of the present invention.\nThe control drug HDM201 was prepared by the method disclosed in patent No. CN104203952A.\nHealthy adult ICR mice, male, 6-9 weeks old, weighing 20-30 g, purchased from Shanghai Xipuer-Bikai Laboratory Animal Co., Ltd., Animal Production License No.: SCXK (HU) 2013-0016\n3.2.3 Preparation of Test Drugs\nIntragastric or intravenous administration: an appropriate amount of sample was weighed, dissolved in 5% DMSO+40% PEG400+55% (10% HP-β-CD in Saline) to prepare a 0.5 mg/ml solution for intragastric or intravenous administration.\n3.2.4 Administration of Test Drugs\nIntravenous administration: for each test compound, 3 male ICR mice were administered intravenously at a dose of 2 mg/kg and an administration volume of […] after fasting overnight.\nIntragastric administration: for each test compound, 3 male ICR mice were administered intragastrically at a dose of 5 mg/kg and an administration volume of […] after fasting overnight.\n3.3 Experimental Operation\nThe collected plasma was stored at −80° C. before analysis. The plasma sample was analyzed by LC-MS/MS, and the sample was pretreated by protein precipitation method. The linear range of sample analysis was 1 to 2000 ng/ml. The lowest quantification limit was 1 ng/mL. WinNonlin (Pharsight, USA) was used to calculate the following pharmacokinetic parameters: area under the curve AUC(0-t), area under the curve AUC(0-∞), half-life t1/2, retention time MRT(0-∞), blood drug concentration Cmax, time taken to reach the peak blood drug concentration Tmax, bioavailability F, apparent volume of distribution Vz, and clearance rate CL."}, "[2]": {"tested_on": "human osteosarcoma cell line SJSA-1", "experiment": "Inhibition of proliferation of human osteosarcoma cell line SJSA-1 (DAPI staining, In Cell Analyzer)", "details": "Homo sapiens, SJSA-1, 72 h, read-out: IC50 (nM), inhibitory activity on proliferation of human osteosarcoma cell line SJSA-1, SJSA-1, incubated 72 h"}, "MDM2": {"target": "T1, MDM2 (Homo sapiens, UniProt Q00987)", "T1 construct": "made in house", "T1 sequence (Q00987 whole entry)": "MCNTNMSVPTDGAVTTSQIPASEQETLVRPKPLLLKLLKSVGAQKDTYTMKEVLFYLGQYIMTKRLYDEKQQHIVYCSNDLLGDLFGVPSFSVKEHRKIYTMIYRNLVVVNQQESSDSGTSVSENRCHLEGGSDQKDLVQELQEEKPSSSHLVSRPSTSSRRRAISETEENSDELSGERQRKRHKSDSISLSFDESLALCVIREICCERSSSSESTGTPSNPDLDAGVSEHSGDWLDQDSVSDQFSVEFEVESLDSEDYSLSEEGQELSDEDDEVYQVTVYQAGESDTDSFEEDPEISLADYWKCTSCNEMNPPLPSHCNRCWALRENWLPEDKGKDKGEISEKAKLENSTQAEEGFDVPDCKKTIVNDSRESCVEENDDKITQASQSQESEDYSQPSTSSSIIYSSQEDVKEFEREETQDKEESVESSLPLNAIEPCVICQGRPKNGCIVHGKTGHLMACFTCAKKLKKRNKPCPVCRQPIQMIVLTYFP", "experiment": "Inhibition test of MDM2-P53 (GST-MDM2, Biotin-P53, Anti-GST-Tb, SA-XL665)", "assay_type": "binding", "in_short": "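Compounds, serially diluted 5-fold (twelve concentrations), were shaken for 90 min at 25° C with a mix of GST-MDM2 (4 nM final), Biotin-P53, anti-GST-Tb and SA-XL665. Buffer: 1×PBS, 0.1% BSA, 5 mM DTT, 1 mM AEBSF; signal read on a microplate reader.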"}, "[3]": {"details": "IV 2 mg/kg, ICR mice, individual animal, 2 mg/kg"}, "[4]": {"details": "PO 5 mg/kg, ICR mice, individual animal, 5 mg/kg"}, "[5]": {"details": "male, ICR, mouse, plasma, iv, 2 mg/kg, IV 2 mg/kg, ICR mice, Mean"}, "[6]": {"details": "male, ICR, mouse, plasma, iv, 2 mg/kg, IV 2 mg/kg, ICR mice, individual animal"}, "[7]": {"details": "male, ICR, mouse, plasma, po, 5 mg/kg, PO 5 mg/kg, ICR mice, Mean"}, "[8]": {"details": "male, ICR, mouse, plasma, po, 5 mg/kg, PO 5 mg/kg, ICR mice, individual animal"}}, "note": "Several values for one entry are separate records, joined by “and”; a condition that tells them apart may be missing. Equal values may be shown once. Read-outs that look alike come from different tables or passages of the source.", "data": [{"smiles": "COc1ncc(-c2nc3c(n2C(C)C)[C@@]2(C(=O)Nc4cc(Cl)ccc42)N(c2cc(Cl)ccc2C)C3=O)c(OC)n1", "note": "[Example S-2, (S)-6-chloro-5′-(5-chloro-2-methylphenyl)-2′-(2,4-dimethoxypyrimidin-5-yl)-3′-isopropyl-3′H-spiro[dihydroindole-3,4′-pyrrolo[3,4-d]imidazole]-2,6′(5′H)-dione]", "values": [{"measurement": "AUC(0-t)", "setting": "[1]; [3]", "value": "1477.86 ng·h/mL and 1362.57 ng·h/mL"}, {"measurement": "AUC(0-∞)", "setting": "[1]; [3]", "value": "1494.93 ng·h/mL and 1392.31 ng·h/mL"}, {"measurement": "CL", "setting": "[1]; [3]", "value": "22.2977 mL/min/kg and 23.941 mL/min/kg"}, {"measurement": "Cmax", "setting": "[1]; [3]", "value": "456.11 ng/mL and 492.38 ng/mL"}, {"measurement": "MRT(0-t)", "setting": "[1]; [3]", "value": 1.51, "unit": "h"}, {"measurement": "MRT(0-∞)", "setting": "[1]; [3]", "value": "1.54 h and 1.64 h"}, {"measurement": "Tmax", "setting": "[1]; [3]", "value": "0.50 h and 1.00 h and 0.08 h"}, {"measurement": "Vz", "setting": "[1]; [3]", "value": "1.80436 L/kg and 2.29183 L/kg"}, {"measurement": "t1/2", "setting": "[1]; [3]", "value": "0.93 h and 1.11 h"}, {"measurement": "F*", "setting": "[1]; PO 5 mg/kg vs IV 2 mg/kg, ICR mice", "value": 101.81, "unit": "%"}, {"measurement": "AUC(0-t)", "setting": "[1]; [4]", "value": "3883.23 ng·h/mL and 4136.52 ng·h/mL"}, {"measurement": "AUC(0-∞)", "setting": "[1]; [4]", "value": "4100.77 ng·h/mL and 4259.08 ng·h/mL"}, {"measurement": "Cmax", "setting": "[1]; [4]", "value": "729.77 ng/mL and 804.59 ng/mL"}, {"measurement": "MRT(0-t)", "setting": "[1]; [4]", "value": "2.87 h and 2.76 h"}, {"measurement": "MRT(0-∞)", "setting": "[1]; [4]", "value": "3.28 h and 2.97 h"}, {"measurement": "Tmax", "setting": "[1]; [4]", "value": 1.00, "unit": "h"}, {"measurement": "t1/2", "setting": "[1]; [4]", "value": "1.83 h and 1.50 h"}, {"measurement": "AUC(0-inf)", "setting": "[1]; [5]", "value": 1480, "unit": "ng·h/mL"}, {"measurement": "clearance", "setting": "[1]; [5]", "value": 22.5, "unit": "mL/min/kg"}, {"measurement": "AUC(0-t)", "setting": "[1]; male, ICR, mouse, plasma, iv, 2 mg/kg, IV 2 mg/kg, ICR mice, Mean, read-out: AUC(0-t)", "value": 1460, "unit": "ng·h/mL"}, {"measurement": "Cmax", "setting": "[1]; male, ICR, mouse, plasma, iv, 2 mg/kg, IV 2 mg/kg, ICR mice, Mean, read-out: Cmax", "value": 475, "unit": "ng/mL"}, {"measurement": "MRT last", "setting": "[1]; [5]", "value": 1.48, "unit": "h"}, {"measurement": "MRT inf", "setting": "[1]; [5]", "value": 1.56, "unit": "h"}, {"measurement": "Tmax", "setting": "[1]; male, ICR, mouse, plasma, iv, 2 mg/kg, IV 2 mg/kg, ICR mice, Mean, read-out: Tmax", "value": 0.528, "unit": "h"}, {"measurement": "Vd", "setting": "[1]; [5]", "value": 1.88, "unit": "L/kg"}, {"measurement": "half-life", "setting": "[1]; male, ICR, mouse, plasma, iv, 2 mg/kg, IV 2 mg/kg, ICR mice, Mean, read-out: t1/2 (converted)", "value": 0.96, "unit": "h"}, {"measurement": "AUC(0-inf)", "setting": "[1]; [6]", "value": 1560, "unit": "ng·h/mL"}, {"measurement": "clearance", "setting": "[1]; [6]", "value": 21.3, "unit": "mL/min/kg"}, {"measurement": "AUC(0-t)", "setting": "[1]; male, ICR, mouse, plasma, iv, 2 mg/kg, IV 2 mg/kg, ICR mice, individual animal, read-out: AUC(0-t)", "value": 1550, "unit": "ng·h/mL"}, {"measurement": "Cmax", "setting": "[1]; male, ICR, mouse, plasma, iv, 2 mg/kg, IV 2 mg/kg, ICR mice, individual animal, read-out: Cmax", "value": 477, "unit": "ng/mL"}, {"measurement": "MRT last", "setting": "[1]; [6]", "value": 1.47, "unit": "h"}, {"measurement": "MRT inf", "setting": "[1]; [6]", "value": 1.51, "unit": "h"}, {"measurement": "Vd", "setting": "[1]; [6]", "value": 1.55, "unit": "L/kg"}, {"measurement": "half-life", "setting": "[1]; male, ICR, mouse, plasma, iv, 2 mg/kg, IV 2 mg/kg, ICR mice, individual animal, read-out: t1/2 (converted)", "value": 0.84, "unit": "h"}, {"measurement": "AUC(0-inf)", "setting": "[1]; [7]", "value": 3870, "unit": "ng·h/mL"}, {"measurement": "AUC(0-t)", "setting": "[1]; male, ICR, mouse, plasma, po, 5 mg/kg, PO 5 mg/kg, ICR mice, Mean, read-out: AUC(0-t)", "value": 3730, "unit": "ng·h/mL"}, {"measurement": "Cmax", "setting": "[1]; male, ICR, mouse, plasma, po, 5 mg/kg, PO 5 mg/kg, ICR mice, Mean, read-out: Cmax", "value": 730, "unit": "ng/mL"}, {"measurement": "MRT last", "setting": "[1]; [7]", "value": 2.84, "unit": "h"}, {"measurement": "MRT inf", "setting": "[1]; [7]", "value": 3.12, "unit": "h"}, {"measurement": "Tmax", "setting": "[1]; male, ICR, mouse, plasma, po, 5 mg/kg, PO 5 mg/kg, ICR mice, Mean, read-out: Tmax", "value": 1.67, "unit": "h"}, {"measurement": "half-life", "setting": "[1]; male, ICR, mouse, plasma, po, 5 mg/kg, PO 5 mg/kg, ICR mice, Mean, read-out: t1/2 (converted)", "value": 1.59, "unit": "h"}, {"measurement": "AUC(0-inf)", "setting": "[1]; [8]", "value": 3250, "unit": "ng·h/mL"}, {"measurement": "AUC(0-t)", "setting": "[1]; male, ICR, mouse, plasma, po, 5 mg/kg, PO 5 mg/kg, ICR mice, individual animal, read-out: AUC(0-t)", "value": 3170, "unit": "ng·h/mL"}, {"measurement": "Cmax", "setting": "[1]; male, ICR, mouse, plasma, po, 5 mg/kg, PO 5 mg/kg, ICR mice, individual animal, read-out: Cmax", "value": 656, "unit": "ng/mL"}, {"measurement": "MRT last", "setting": "[1]; [8]", "value": 2.89, "unit": "h"}, {"measurement": "MRT inf", "setting": "[1]; [8]", "value": 3.09, "unit": "h"}, {"measurement": "Tmax", "setting": "[1]; male, ICR, mouse, plasma, po, 5 mg/kg, PO 5 mg/kg, ICR mice, individual animal, read-out: Tmax", "value": 2, "unit": "h"}, {"measurement": "half-life", "setting": "[1]; male, ICR, mouse, plasma, po, 5 mg/kg, PO 5 mg/kg, ICR mice, individual animal, read-out: t1/2 (converted)", "value": 1.45, "unit": "h"}, {"measurement": "AUC(0-t)", "setting": "[1]; male, ICR, mouse, plasma, po, 5 mg/kg, oral intragastric administration 5 mg/kg, read-out: AUC0-t", "value": 3730, "unit": "ng·h/mL"}, {"measurement": "half-life", "setting": "[1]; male, ICR, mouse, plasma, po, 5 mg/kg, oral intragastric administration 5 mg/kg, read-out: half-life (converted)", "value": 1.59, "unit": "h"}, {"measurement": "bioavailability", "setting": "[1]; male, ICR, mouse, plasma, oral intragastric administration 5 mg/kg, read-out: bioavailability", "value": 102, "unit": "%"}, {"measurement": "IC50", "setting": "[2]", "value": 7.4, "unit": "nM"}, {"measurement": "IC50", "setting": "MDM2", "value": 1.13, "unit": "nM"}]}]}
